According to publication PMC12304301, “The Drosophila DEG/ENaC PPK12 is a Na^+ leak channel with a low Na^+ affinity” (Scientific Reports, 2025):

Assays:
PPK12 [1] = biological target: T1, PPK12 (Drosophila melanogaster, UniProt Q9W250); test: two-electrode voltage clamp of Xenopus oocytes, block of NMDG-sensitive constitutive current; assay type: cell-based
T1 construct: cRNA expressed alone in Xenopus laevis oocytes; DEG/ENaC family members are trimers
T1 sequence (Q9W250 1-569): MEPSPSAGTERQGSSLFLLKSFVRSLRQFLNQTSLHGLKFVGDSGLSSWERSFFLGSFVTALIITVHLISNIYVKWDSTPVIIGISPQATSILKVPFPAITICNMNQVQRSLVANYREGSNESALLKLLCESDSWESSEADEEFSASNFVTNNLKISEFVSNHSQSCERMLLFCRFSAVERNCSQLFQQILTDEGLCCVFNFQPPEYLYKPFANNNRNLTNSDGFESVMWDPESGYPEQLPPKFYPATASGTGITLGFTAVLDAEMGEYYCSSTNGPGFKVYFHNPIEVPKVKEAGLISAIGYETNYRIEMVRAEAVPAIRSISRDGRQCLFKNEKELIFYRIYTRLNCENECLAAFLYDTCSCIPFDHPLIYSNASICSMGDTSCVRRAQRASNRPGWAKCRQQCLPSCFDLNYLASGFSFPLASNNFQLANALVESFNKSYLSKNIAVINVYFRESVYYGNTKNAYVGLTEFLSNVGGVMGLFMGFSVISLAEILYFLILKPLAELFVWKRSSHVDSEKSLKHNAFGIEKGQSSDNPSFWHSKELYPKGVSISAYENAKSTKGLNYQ

PPK12 [2] = biological target: T1, PPK12; test: two-electrode voltage clamp of Xenopus oocytes, inhibition of total constitutive current; assay type: cell-based; conditions: 140 mM NaCl bath, pH 7.4, -70 mV; only part of current carried by PPK12

SMILES | IC50 (PPK12 [1]) [µM] | % inhibition at 100 μM (PPK12 [2])
N=C(N)NC(=O)c1nc(Cl)c(N)nc1N [amiloride] | 220 ± 20 | –
NC(=NC(=O)c1nc(Cl)c(N)nc1N)NCc1ccccc1 [benzamil] | – | amiloride, its analog benzamil, and diminazene–partially and reversibly inhibited constitutive currents in PPK12-expressing oocytes
N=C(N)c1ccc(/N=N/Nc2ccc(C(=N)N)cc2)cc1 [diminazene] | 110 ± 10 | –
